Results on 9 compounds are retold here after patent US9050266B2, “Phenol derivatives and pharmaceutical or cosmetic use thereof” (GALDERMA RESEARCH & DEVELOPMENT, priority 2009, dated 2015).

Data set [1] has as its target T1, receptors of AR type (androgen receptor) (Homo sapiens, UniProt P10275).
T1 construct: expressed in transfected cells; host or cells: PALM cell line (PC3 stably transfected with PMMTV-neo-Luc and pSG5puro-AR)
T1 sequence (P10275 1-920): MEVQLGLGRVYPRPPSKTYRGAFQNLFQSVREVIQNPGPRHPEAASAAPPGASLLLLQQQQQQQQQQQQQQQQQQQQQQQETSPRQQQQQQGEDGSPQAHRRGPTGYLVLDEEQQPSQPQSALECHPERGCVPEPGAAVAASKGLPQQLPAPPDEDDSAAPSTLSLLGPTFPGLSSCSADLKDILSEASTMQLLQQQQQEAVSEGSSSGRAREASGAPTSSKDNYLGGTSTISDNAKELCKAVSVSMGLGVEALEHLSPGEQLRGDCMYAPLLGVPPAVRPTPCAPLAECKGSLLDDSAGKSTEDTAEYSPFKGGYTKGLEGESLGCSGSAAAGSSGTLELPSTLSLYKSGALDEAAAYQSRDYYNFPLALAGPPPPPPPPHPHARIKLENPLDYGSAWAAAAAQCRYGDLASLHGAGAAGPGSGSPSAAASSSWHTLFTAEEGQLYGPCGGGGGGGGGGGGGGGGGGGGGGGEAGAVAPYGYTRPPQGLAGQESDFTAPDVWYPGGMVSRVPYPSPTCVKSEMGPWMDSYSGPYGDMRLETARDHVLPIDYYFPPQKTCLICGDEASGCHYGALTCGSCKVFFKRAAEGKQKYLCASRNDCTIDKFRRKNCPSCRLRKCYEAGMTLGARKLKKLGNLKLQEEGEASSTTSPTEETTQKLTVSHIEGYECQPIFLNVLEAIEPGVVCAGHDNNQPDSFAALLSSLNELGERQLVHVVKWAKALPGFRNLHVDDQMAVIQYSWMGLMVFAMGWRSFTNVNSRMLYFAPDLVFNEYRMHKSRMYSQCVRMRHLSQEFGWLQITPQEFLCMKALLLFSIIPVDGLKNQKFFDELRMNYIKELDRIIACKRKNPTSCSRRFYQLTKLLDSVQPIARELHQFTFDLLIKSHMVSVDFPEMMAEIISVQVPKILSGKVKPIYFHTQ
In words: AR transactivation test in the PALM (PC3 Androgen receptor Luciferse MMTV) cell line, cross curves against methyltrienolone. The data set is classed as cell-based. The conditions noted are these: cross curves vs reference agonist methyltrienolone, read-out: Kdapp (apparent dissociation constant). The procedure:
The compounds according to the invention show inhibitory properties on receptors of AR type. This AR receptor-inhibiting activity is measured in a transactivation test through the KdR (resting), KdA (active) and Kdapp (apparent) dissociation constants according to the method set out in J. Molecular Biology (1965), 12(1), 88-118, Monod J. et al.
The expression “AR-type receptor inhibitor” means, according to the invention, any compound which has a Kdapp dissociation constant of less than or equal to 1 μM, and a KdR/KdA ratio ≦10, in a transactivation test.
The transactivation test is carried out in the PALM (PC3 Androgen receptor Luciferse MMTV) cell line which is a stable transfectant containing the PMMTV-neo-Luc (reporter gene) and pSG5puro-AR plasmids.
In this study, the affinity of each product for the 2 receptor states (KdR and KdA) is determined, as is an apparent Kd (KdApp). This constant is a result of the 2 Kd, but also depends on the initial equilibrium of the receptor between the active state and the resting state (L0) and on its expression level. It is determined by means of the following formula: 1/KdApp=(L0/(1+L0))×(1/KdR)+(1/(1+L0))×(1/KdA)
To determine these constants, “cross curves” of the test product against a reference agonist, methyltrienolone, are produced in 96-well plates. The test product is used at 10 concentrations and the reference agonist at 7 concentrations.

As for `COc1nccc(NCc2ccccc2O)n1` [Example 20, 2-[(2-Methoxypyrimidin-4-ylamino)methyl]phenol], the melting point is 161 °C. In the case of `N#Cc1cccc(NCc2ccccc2O)n1` [Example 4, 6-(2-hydroxy-benzyl-amino)-pyridine-2-carbonitrile], the Kd in data set [1] turned out to be 200 nM. For `CSc1cccc(NCc2ccccc2O)n1` [Example 22, 2-[(6-Methylsulphanylpyridin-2-ylamino)methyl]phenol], the melting point was 61 °C. As for `Cc1cc(Cl)nc(NCc2ccccc2O)c1` [Example 18, 2-[(6-chloro-4-methyl-pyridin-2-ylamino)-methyl]-phenol], the Kd in data set [1] worked out at 1000 nM.

Compound `COc1cccc(NCc2ccccc2O)n1` [Example 1, 2-[(6-Methoxypyridin-2-ylamino)methyl]phenol] returned a melting point of 103 °C. Also, in data set [1], the Kd amounted to 40 nM. On to `COc1cncc(NCc2ccccc2O)n1` [Example 19, 2-[(6-Methoxypyrazin-2-ylamino)methyl]phenol], for which the melting point is 158 °C. In data set [1], the Kd was 8 nM. For `Oc1ccccc1CNc1cccc(Br)n1` [Example 2, 2-[(6-bromo-pyridin-2-ylamino)-methyl]-phenol], the Kd in data set [1] worked out at 2 nM. Turning to `Oc1ccccc1CNc1cncc(Br)n1` [Example 13, 2-[(6-Bromopyrazin-2-ylamino)methyl]phenol], the melting point stood at 168 °C. On to `C[S+]([O-])c1cccc(NCc2ccccc2O)n1` (centres unmarked) [Example 23, 2-[(6-Methanesulphinylpyridin-2-ylamino)methyl]phenol], for which the melting point stood at 133 °C.
